Key:
[1] = Pharmacokinetic study of pemafibrate in liver cirrhosis patients (plasma unchanged pemafibrate, LC-MS-MS); assay type: in vivo, human; details: for AUC0-t, ratio of geometric mean to persons with normal liver function / Cmax, ratio of geometric mean to persons with normal liver function: single oral dose 0.2 mg, fasting
Protocol: To investigate the effect of liver cirrhosis on the pharmacokinetics of pemafibrate, a clinical study was conducted on mild liver cirrhosis patients, moderate liver cirrhosis patients, fatty liver patients, and persons with normal liver function.
Subjects were classified into four groups according to the criteria in Table 2. As a result, the subjects included 8 mild liver cirrhosis patients, 6 moderate liver cirrhosis, patients, 10 fatty liver patients, and 8 persons with normal liver function.
2. Test Method (1) Administration and Measurement Subjects received a single oral dose of 0.2 mg of study drug (pemafibrate) in the fasting state (fasting for at least 10 hours).
Blood samples were collected at a total of 16 time points immediately before administration of the investigational product and 0.25, 0.5, 1, 1.5, 2, 3, 4, 6, 8, 10, 12, 16, 24, 36, and 48 hours after administration of the investigational product, and plasma concentrations of unchanged pemafibrate were measured by high performance liquid chromatography/tandem mass spectrometry (High-Performance Liquid Chromatography/Tandem Mass Spectrometry: LC-MS-MS method).
To investigate the pharmacokinetics, the pharmacokinetic parameters (maximum concentration (Cmax) and area under the concentration-time curves […] (AUC0-t) of unchanged pemafibrate were evaluated by calculating the ratio of the geometric mean values of the groups of patients with hepatic dysfunction to those with normal hepatic function and their 90% confidence intervals.

[2] = literature statement; cited from earlier work
[3] = fatty liver patients (n = 10) vs normal liver function (n = 8), plasma unchanged pemafibrate
[4] = mild liver cirrhosis Child-Pugh class A (n = 8) vs normal liver function (n = 8)
[5] = moderate liver cirrhosis Child-Pugh class B (n = 6) vs normal liver function (n = 8)

SMILES: CC[C@@H](Oc1cccc(CN(CCCOc2ccc(OC)cc2)c2nc3ccccc3o2)c1)C(=O)O [pemafibrate, (2R)-2-[3-({1,3-benzoxazol-2-yl[3-(4-methoxyphenoxy)propyl]amino}methyl)phenoxy]butanoic acid]
- geometric mean values of Cmax and AUC0-t compared with the liver function normal group ([1]; fatty liver patient group): about 1.2 times
- AUC0-t, ratio of geometric mean to persons with normal liver function [1, 3]: 1.194
- Cmax, ratio of geometric mean to persons with normal liver function [1, 3]: 1.198
- AUC0-t, ratio of geometric mean to persons with normal liver function [1, 4]: 2.076
- Cmax, ratio of geometric mean to persons with normal liver function [1, 4]: 2.329
- ratio of geometric mean values of Cmax and AUC0-t, liver cirrhosis patients to persons with normal liver function ([1]; mild liver cirrhosis patients (Child-Pugh Class A)): approximately 2 fold
- AUC0-t, ratio of geometric mean to persons with normal liver function [1, 5]: 4.191
- Cmax, ratio of geometric mean to persons with normal liver function [1, 5]: 3.882
- ratio of geometric mean values of Cmax and AUC0-t, liver cirrhosis patients to persons with normal liver function ([1]; moderate liver cirrhosis patients (Child-Pugh Class B)): approximately 4 fold
- route of excretion [2]: rarely excreted via kidneys

SMILES: CC(C)(Oc1ccc(CCNC(=O)c2ccc(Cl)cc2)cc1)C(=O)O [bezafibrate]
- route of excretion [2]: excreted in the urine primarily via kidneys
